Test results reported in the supplement of paper PMC10307832.

Compound: CCN1C(=O)C2=CC(=C(N=C2N(C1=O)C3CC3)N)C(=O)N + CCNC(=O)c1noc(-c2cc(C(C)C)c(O)cc2O)c1-c1ccc(CN2CCOCC2)cc1 [Luminespib] (partner 0.01 µM)
Assay: relative viability (nuclei count vs DMSO), 5 days (fraction); higher = more cells survive
Outline: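 Medians of duplicate plates are given as relative viability. That measure is the nuclei count in treated wells divided by the count in vehicle wells. Counts were taken on 4× images of lung cancer cell lines in 1536-well plates, 5 days after pin-tool dosing the day after seeding with one drug alone or a fixed anchor-drug dose plus five library-drug doses (not always all listed) in √10 steps.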

Cell Line	relative viability (first compound 0.253 µM)	relative viability (first compound 0.8 µM)	relative viability (first compound 2.53 µM)	relative viability (first compound 8 µM)
NCI-H650	0.66	0.821	0.712	0.78
NCI-H2009	1.02	1.08	0.943	0.916
EPLC-272H	0.253	0.227	0.465	0.445
NCI-H520	0.236	0.201	0.246	0.3
NCI-H2405	0.668	0.844	0.755	0.652
NCI-H2085	0.378	0.408	0.355	0.493
NCI-H322M	0.724	0.934	0.886	1
NCI-H1944	0.795	0.711	0.618	0.723
LC-2-ad	0.926	0.938	1.12	1.11
NCI-H358	0.2	0.377	0.423	0.379
NCI-H2170	0.686	0.879	0.716	0.746
A-427	1.13	1.26	1.24	1.13
NCI-H1666	–	1.02	1.07	1.05
LOU-NH91	0.283	0.452	0.379	0.349
ABC-1	0.869	0.4	0.639	0.518
NCI-H1651	0.856	0.813	0.874	0.885
201T	1.06	1.04	1.02	1.08
NCI-H3122	0.0925	0.0714	0.0957	0.0756
NCI-H838	0.262	0.334	0.214	0.336
NCI-H441	0.287	0.34	0.419	0.35
HOP-62	1.03	0.899	0.926	0.945
SW 1573	0.191	0.377	0.303	0.427
HCC-44	0.934	0.905	1.17	1.04

Cell Line	relative viability (first compound 0.253 µM)	relative viability (first compound 0.8 µM)	relative viability (first compound 2.53 µM)	relative viability (first compound 8 µM)
LCLC-103H	0.916	0.956	0.958	1.12
NCI-H1915	0.852	0.775	0.873	0.892
ChaGo-K-1	0.541	0.508	0.636	0.53
PC-3 [JPC-3]	0.661	0.709	0.663	0.823
UMC-11	0.914	1.02	1.08	1.17
NCI-H1437	1.1	1.06	1.1	1.16
NCI-H1734	0.67	0.215	0.191	0.233
LK-2	0.181	0.202	0.175	0.199
HCC-15	0.231	0.7	0.395	0.452
NCI-H661	0.922	0.904	0.898	0.904
NCI-H2347	1.03	0.469	0.774	0.341
LXF-289	0.693	0.73	0.661	0.784
BEN	0.469	0.427	0.377	0.351
NCI-H2023	0.857	0.726	0.781	0.792
NCI-H727	0.238	0.309	0.394	0.321
NCI-H1355	0.652	0.887	0.761	0.753
NCI-H1793	–	0.183	0.177	0.15
COR-L 105	0.807	0.737	0.623	0.641
NCI-H2228	0.132	0.167	0.203	0.11
PC-14	0.144	0.159	0.158	0.119
EMC-BAC-2	1.29	1.08	1.03	1.19
LU99A	0.249	0.259	0.285	0.234
RERF-LC-KJ	1.27	1.17	1.22	1.14

Cell Line	relative viability (first compound 0.253 µM)	relative viability (first compound 0.8 µM)	relative viability (first compound 2.53 µM)	relative viability (first compound 8 µM)
NCI-H647	0.16	0.129	0.18	0.14
LCLC-97TM1	0.678	0.845	0.766	0.799
NCI-H1993	1.78	0.877	0.612	0.832
HARA	0.706	0.671	0.843	0.929
NCI-H460	0.0334	0.0279	0.0363	0.037
NCI-H1650	0.185	0.196	0.162	0.186
EKVX	0.94	0.952	0.772	0.722
NCI-H1755	0.455	0.412	0.528	0.51
NCI-H1395	0.711	0.599	0.747	0.619
NCI-H1792	0.586	0.4	0.541	0.419
NCI-H2087	0.229	0.193	0.132	0.189
H3255	0.834	0.773	0.883	0.932
SK-MES-1	0.774	0.591	0.793	0.945
NCI-H23	0.195	0.203	0.228	0.214
HCC-827	0.77	0.588	0.459	0.866
SK-LU-1	0.177	0.201	0.194	0.215
NCI-H1975	0.167	0.283	0.222	0.276
NCI-H1563	0.538	0.509	0.573	0.542
COR-L23	0.697	0.653	0.657	0.765
CAL-12T	0.294	0.792	0.193	0.436
NCI-H596	1.01	0.884	0.941	1.14
NCI-H2126	0.877	0.911	0.993	0.779
